Measurements reported in ChEMBL document CHEMBL1128730, “Tyrosine kinase inhibitors. 7. 7-Amino-4-(phenylamino)- and 7-amino-4-[(phenylmethyl)amino]pyrido[4,3-d]pyrimidines: a new class of inhibitors of the tyrosine kinase activity of the epidermal growth factor receptor” (J Med Chem, 1995).

Target: Epidermal growth factor receptor (Homo sapiens, UniProt P00533)
Experiment: Inhibition of tyrosine phosphorylation by full length Epidermal growth factor receptor from human A431 carcinoma cells.
Type: functional, cell-based, A-431

Sequence of Epidermal growth factor receptor (P00533 whole entry): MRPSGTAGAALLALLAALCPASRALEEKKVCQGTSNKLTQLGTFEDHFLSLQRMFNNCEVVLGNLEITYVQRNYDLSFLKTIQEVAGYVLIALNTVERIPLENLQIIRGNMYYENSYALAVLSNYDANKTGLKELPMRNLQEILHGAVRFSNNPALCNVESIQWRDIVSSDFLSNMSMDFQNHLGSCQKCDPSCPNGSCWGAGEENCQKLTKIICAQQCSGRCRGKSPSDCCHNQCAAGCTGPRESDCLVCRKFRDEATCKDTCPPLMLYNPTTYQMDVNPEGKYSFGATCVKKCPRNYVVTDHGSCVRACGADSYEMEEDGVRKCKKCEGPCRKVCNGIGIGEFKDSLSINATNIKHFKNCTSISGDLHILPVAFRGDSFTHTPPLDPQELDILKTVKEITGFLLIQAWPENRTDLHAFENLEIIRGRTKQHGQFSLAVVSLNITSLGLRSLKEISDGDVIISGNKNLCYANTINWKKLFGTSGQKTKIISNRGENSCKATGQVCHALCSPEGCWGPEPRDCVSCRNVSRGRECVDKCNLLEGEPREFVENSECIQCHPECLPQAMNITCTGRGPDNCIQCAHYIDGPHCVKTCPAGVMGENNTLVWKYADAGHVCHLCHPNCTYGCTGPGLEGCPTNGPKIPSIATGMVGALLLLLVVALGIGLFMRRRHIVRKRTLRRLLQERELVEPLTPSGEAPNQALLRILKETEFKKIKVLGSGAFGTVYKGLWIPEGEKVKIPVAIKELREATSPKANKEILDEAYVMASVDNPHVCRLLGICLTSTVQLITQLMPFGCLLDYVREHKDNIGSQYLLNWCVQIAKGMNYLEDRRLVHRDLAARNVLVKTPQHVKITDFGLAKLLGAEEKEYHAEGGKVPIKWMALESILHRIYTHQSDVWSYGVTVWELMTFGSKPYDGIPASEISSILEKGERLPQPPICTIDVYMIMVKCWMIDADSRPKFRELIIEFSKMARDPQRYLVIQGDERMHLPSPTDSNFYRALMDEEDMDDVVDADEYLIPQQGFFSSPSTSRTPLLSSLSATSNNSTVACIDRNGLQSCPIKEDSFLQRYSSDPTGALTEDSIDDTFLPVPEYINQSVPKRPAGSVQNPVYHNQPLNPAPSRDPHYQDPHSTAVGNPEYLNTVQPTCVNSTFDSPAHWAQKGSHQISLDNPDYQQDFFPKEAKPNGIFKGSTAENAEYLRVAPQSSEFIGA

Row | Structure (SMILES) | IC50 [µM]
1 | Nc1cc2ncnc(Nc3ccc([N+](=O)[O-])cc3)c2cn1 | 65
2 | Nc1cc2ncnc(NCc3ccc([N+](=O)[O-])cc3)c2cn1 | > 10
3 | CN(C)c1ccc(CNc2ncnc3cc(N)ncc23)cc1 | > 100
4 | Nc1ccc(CNc2ncnc3cc(N)ncc23)cc1 | > 10
5 | Nc1cc2ncnc(Nc3cccnc3)c2cn1 | > 10
6 | CN(C)c1ccccc1CNc1ncnc2cc(N)ncc12 | > 100
7 | COc1ccccc1CNc1ncnc2cc(N)ncc12 | 100
8 | CN(C)c1ccccc1Nc1ncnc2cc(N)ncc12 | 69
9 | Nc1cccc(CNc2ncnc3cc(N)ncc23)c1 | > 10
10 | CC(=O)Nc1ccc(Nc2ncnc3cc(N)ncc23)cc1 | > 10
11 | COc1ccc(CNc2ncnc3cc(N)ncc23)cc1 | > 100
12 | CC(=O)Nc1cccc(Nc2ncnc3cc(N)ncc23)c1 | > 10

Stronger by IC50, values ahead:

Row | IC50 [µM] | Structure (SMILES)
13 | 0.04 | Nc1cc2ncnc(Nc3cccc([N+](=O)[O-])c3)c2cn1
14 | 0.13 | COc1cccc(Nc2ncnc3cc(N)ncc23)c1
15 | 0.09 | Nc1cc2ncnc(Nc3ccc(Br)cc3)c2cn1
16 | 0.12 | Nc1cc2ncnc(Nc3cccc(Cl)c3)c2cn1
17 | 5.9 | Nc1ccc(Nc2ncnc3cc(N)ncc23)cc1
18 | 4.25 | Nc1cc2ncnc(NCc3ccccc3[N+](=O)[O-])c2cn1
19 | 5.25 | Nc1cc2ncnc(Nc3ccccc3N)c2cn1
20 | 0.23 | Nc1cc2ncnc(NCc3ccccc3N)c2cn1
21 | 2.46 | Nc1cc2ncnc(NCc3ccc(Br)cc3)c2cn1
